Test results as given in US11426402B2, “IRE1 activating compounds for use in therapy” (The Scripps Research Institute, priority 2019, dated 2022).

Legend:
[1] = test system: RIDD targets SCARA3, Bloc1s1 and Col6A1; test: IRE1 RIDD activity from the RNAseq dataset in HEK293T cells; type: cell-based, human; conditions: 6 hours
Description: Cells were lysed and total RNA collected using the RNeasy mini kit, according to manufacturer's instructions (Qiagen). Conventional RNA-seq was conducted via BGI Americas on the BGI Proprietary platform, providing single-end 50 bp reads at 20 million reads per sample. Alignment of sequencing data was done using DNAstar Lasergene SeqManPro to the GRCh37. p 13 human genome reference assembly, and assembly data were imported into ArrayStar 12.2 with QSeq (DNAStar Inc.) to quantify the gene expression levels and normalization to reads per kilobase per million (RPKM). Differential expression analysis and statistical significance calculations between different conditions was assessed using “DESeq” in R, compared to vehicle-treated cells, using a standard negative binomial fit of the RPKM data to generate Fold Change quantifications.
Also evaluated was IRE1 RIDD activity induced by the compounds using the RNAseq dataset. Despite robust IRE1/XBP1s transcriptional activity following 6 hours of treatment, there was no evidence for RIDD after the same 6 hours.

IRE1 = IRE1 (Homo sapiens, UniProt O75460); test: IRE1 phosphorylation by Phos-tag SDS-PAGE and immunoblotting in HEK293T cells; type: cell-based; conditions: co-treatment of Tg (500 nM) and 1 μM APY29
Description: (§1) FIG. 3A-FIG. 3D. […] Error bars show SEM for n=3. […] Error bars show SEM for n=3. […] Error bars show SEM for n=3.
Cell lysates were prepared as previously described in RIPA buffer (50 mM Tris, pH 7.5, 150 mM NaCl, 0.1% SDS, 1% Triton X-100, 0.5% deoxycholate and protease inhibitor cocktail (Roche). Total protein concentration in cellular lysates was normalized using the Bio-Rad protein assay. Lysates were then denatured with 1× Laemmli buffer+100 mM DTT and boiled before being separated by SDS-PAGE. Samples were transferred onto nitrocellulose membranes (Bio-Rad) for immunoblotting and blocked with 5% milk in Tris-buffered saline, 0.5% Tween-20 (TBST) following incubation overnight at 4° C. with primary antibodies. Membranes were washed in TBST, incubated with IR-Dye conjugated secondary antibodies and analyzed using Odyssey Infrared Imaging System (LI-COR Biosciences). Quantification was carried out with LI-COR Image Studio software.
Compounds that activate IRE1 through binding the IRE1 kinase active site and inhibiting IRE1 autophosphorylation can elicit off-target activity likely associated with binding to other protein kinases.^20, 35, 36 Thus, the purpose of this example was to define the dependence of the present compounds on IRE1 kinase activity. HEK293T cells were treated with compound 198, 474, or 970 in the absence or presence of Tg, and IRE1 phosphorylation was monitored by using Phos-tag SDS-PAGE and immunoblotting. As a control, cells were treated with APY29—an IRE1 kinase site inhibitor that allosterically activates the IRE1 RNAse^20 in the absence or presence of Tg.

APP = APP immunoblots of lysates and conditioned media of CHO 7PA2 cells; type: cell-based; conditions: with compound 474
Description: FIGS. 5A-5D. […] Cells were treated for 18 hours, media was then replaced and conditioned in the presence of treatments for 24 hours before harvesting for ELISA assay. Error bars represent SEM for n=3 replicates. Statistics calculated from one-tailed Student's t-test. *p<0.05, **p<0.01, ***p<0.001 (FIG. 5A). Quantification of media and lysate immunoblots from 474 treatment (10 μM) of APP. Error bars represent Standard Deviation for n=3 replicates. Statistics calculated from one-tailed Student's t-test. *p<0.05, **p<0.01 ***p<0.001 (FIG. 5B). Plot showing fraction of total remaining APP at each time point after S35 metabolic labeling of newly synthesized protein, accounting for the sum of APP in lysate and media. Error bars represent Standard Deviation for n=3 replicates. Statistics calculated from one-tailed Student's t-test. *p<0.05, **p<0.01, ***p<0.001 (FIG. 5C). Plot showing fraction of secreted APP collected at 2 hours after metabolic labeling. Error bars represent Standard Deviation for n=3 replicates. Statistics calculated from one-tailed Student's t-test. *p<0.05, **p<0.01, ***p<0.001 (FIG. 5D). […]

[2] = test system: IRE1/XBP1s signaling pathway; test: XBP1-RLuc splicing reporter in HEK293T-REx cells; type: cell-based; conditions: activators 10 μM, 4 μ8c 32 μM, 18 hr
Description: FIG. 2A and FIG. 2B. Activation of RLuc luminescence in HEK293T-Rex cells stably expressing XBP1s-RLuc treated with 10 μM IRE1 activators in the presence or absence of IRE1 inhibitor 4 μ8c (32 μM) for 18 hr. Luminescence is shown as % signal relative to Tg treatment (500 nM; 18 hr). Error bars represent standard deviation for n=3 replicates (FIG. 2A), Activation of RLuc luminescence in HEK293T-Rex cells stably expressing XBP1s-RLuc treated with the indicated concentrations of IRE1 activator compounds for 18 hr. Luminescence is shown as % signal relative to Tg treatment (500 nM; 18 hr) Error bars represent standard deviation for n=3 replicates (FIG. 2B).
HEK293T-Rex cells incorporating either the XBP1s-Rluc or ERSE-FLuc reporters were collected by trypsinization and resuspended at a density of 500,000 cells per mL. The assay was started by dispensing 5 μL of cell suspension into each well of white, solid-bottom 1536-well plates using a flying reagent dispenser (FRD) and placed into an online incubator for 3 hr. Cells were then treated with 34 nL/well of either test compounds to give final concentrations of 5.17 μM, DMSO (low control, final concentration 0.68%, 0% activation) or 37 μM of Delta-7 thapsigargin (high control, final concentration 500 nM, 100% activation). Plates were incubated for 18 hr at 37° C., removed from the incubator and equilibrated to room temperature for 10 min. Luciferase activity was detected by addition of 5 μL of ONE-Glo reagent (Promega) to each well. After a 10 min incubation time, light emission was measured with the ViewLux reader (PerkinElmer).
The percent activation of each test compound was calculated as follows: % Activation=100*(Test Compound-Median Low Control)/(Median High Control Median Low Control). Primary screening of the 646,275 compound library at Scripps Florida yielded 10,114 hits for XBP1s Renilla Luciferase activity at ≥13.83% activation by thapsigargin. Compounds that hit in more than 7 screens (promiscuity score) were eliminated, as well as those that elicited HSP70 activation. The top 6,391 remaining compounds (activation≥16.36%) were moved forward to triplicate confirmation screening and HEK TREX CTG cytotoxicity counterscreening. Duplicates were removed from the resulting list, and the top 638 activating compounds (≥15.92%) were moved forward for triplicate titration screening and HEK TREX CTG titration counterscreening.
A HEK293^T-REx cell line that stably expresses a XBP1-Renilla luciferase (XBP1-RLuc) splicing reporter was used to identify compounds that activated the IRE1/XBP1s signaling pathway^37. Activated IRE1selectively splices mRNA encoded by this reporter, resulting in a frame-shift that allows expression of the active Renilla luciferase enzyme^37. […]

secreted Aβ = test: Aβ ELISA of media conditioned on CHO 7PA2 cells (V717F APP); type: cell-based; conditions: 4 μ8c 32 μM
Description: FIGS. 5A-5D. […] Cells were treated for 18 hours, media was then replaced and conditioned in the presence of treatments for 24 hours before harvesting for ELISA assay. Error bars represent SEM for n=3 replicates. Statistics calculated from one-tailed Student's t-test. *p<0.05, **p<0.01, ***p<0.001 (FIG. 5A). Quantification of media and lysate immunoblots from 474 treatment (10 μM) of APP. Error bars represent Standard Deviation for n=3 replicates. Statistics calculated from one-tailed Student's t-test. *p<0.05, **p<0.01 ***p<0.001 (FIG. 5B). Plot showing fraction of total remaining APP at each time point after S35 metabolic labeling of newly synthesized protein, accounting for the sum of APP in lysate and media. Error bars represent Standard Deviation for n=3 replicates. Statistics calculated from one-tailed Student's t-test. *p<0.05, **p<0.01, ***p<0.001 (FIG. 5C). Plot showing fraction of secreted APP collected at 2 hours after metabolic labeling. Error bars represent Standard Deviation for n=3 replicates. Statistics calculated from one-tailed Student's t-test. *p<0.05, **p<0.01, ***p<0.001 (FIG. 5D).
7PA2 or 7WD10 cells were cultured on 96-well plates (Corning) and treated with IRE1 activating compounds +/−4 μ8c overnight. The medium was then replaced at 50% volume with treatment remaing, culture medium was collected after 24 hours. The medium was analyzed by an AP ELISA as follows. Monoclonal 6E10 anti-Aβ(residues 1-17) mouse IgG1, (Biolegend) was coated in […] carbonate buffer, pH 9.6, at 4° C. overnight on high binding assay black plates (Costar), washed with TBST (tris buffered saline with 0.05% Tween 20) and blocked with 5% non-fat milk in TBST. Samples and standards (condition 7PA2 media) were incubated for 1.5 hr, followed by addition of 4G8 antibody [anti-Aβ residues 17-24, mouse IgG2b (Biolegend)] conjugated to horseradish peroxidase (hrp) and incubated for 1.5 hr at 25° C. After washing, ABM substrate was added, followed by detection with an absorbance plate reader.
ELISA was used to monitor Aβ in media conditioned on a CHO cell line stably expressing the destabilized, disease-associated V717F APP mutant (CHO^7PA2)^45 treated with or without compounds 198, 474, and 970. […] The reduction in A secretion can be attributed to IRE1 activation because the reduced extracellular accumulation of Aβ is blocked by co-treatment with the active site IRE1 inhibitor 4 μ8c (FIG. 5A).

DNAJB9 = type: cell-based; conditions: 4 μ8c 32 μM
BiP = test: qPCR of ATF6-regulated gene BiP in HEK293T cells; type: cell-based
Description: as §1
The compounds were measured for their abilities to induce expression of ER stress-responsive genes CHOP and BiP (or […]) regulated downstream of the PERK and ATF6 UPR signaling pathways, respectively^8, 40. The Tg-dependent expression of these two genes is largely insensitive to 4 μ8c, confirming their induction through an IRE1/XBP1s independent mechanism.

XBP1 splicing = XBP1 splicing in HEK293T cells with or without KIRA6; type: cell-based
Description: To amplify the spliced and unspliced XBP1 mRNA, XBP1 primers were used as described previously.^21 PCR products were electrophoresed on 2.5% agarose gel. GAPDH (forward 5′[…]3′, reverse 5′[…]3′) was used as a loading control. The size difference between the spliced and the unspliced XBP1 is 26 nucleotides.
Next was determined the dependence of compound-dependent IRE1 RNAse activation on autophosphorylation. HEK293T cells were initially treated with the compounds in the absence or presence of KIRA6—a compound that binds the nucleotide binding pocket and inhibits both IRE1 kinase and RNAse activity^36. Co-treatment with KIRA6 blocked compound-dependent XBP1splicing.

Sequence of IRE1 (O75460 19-977): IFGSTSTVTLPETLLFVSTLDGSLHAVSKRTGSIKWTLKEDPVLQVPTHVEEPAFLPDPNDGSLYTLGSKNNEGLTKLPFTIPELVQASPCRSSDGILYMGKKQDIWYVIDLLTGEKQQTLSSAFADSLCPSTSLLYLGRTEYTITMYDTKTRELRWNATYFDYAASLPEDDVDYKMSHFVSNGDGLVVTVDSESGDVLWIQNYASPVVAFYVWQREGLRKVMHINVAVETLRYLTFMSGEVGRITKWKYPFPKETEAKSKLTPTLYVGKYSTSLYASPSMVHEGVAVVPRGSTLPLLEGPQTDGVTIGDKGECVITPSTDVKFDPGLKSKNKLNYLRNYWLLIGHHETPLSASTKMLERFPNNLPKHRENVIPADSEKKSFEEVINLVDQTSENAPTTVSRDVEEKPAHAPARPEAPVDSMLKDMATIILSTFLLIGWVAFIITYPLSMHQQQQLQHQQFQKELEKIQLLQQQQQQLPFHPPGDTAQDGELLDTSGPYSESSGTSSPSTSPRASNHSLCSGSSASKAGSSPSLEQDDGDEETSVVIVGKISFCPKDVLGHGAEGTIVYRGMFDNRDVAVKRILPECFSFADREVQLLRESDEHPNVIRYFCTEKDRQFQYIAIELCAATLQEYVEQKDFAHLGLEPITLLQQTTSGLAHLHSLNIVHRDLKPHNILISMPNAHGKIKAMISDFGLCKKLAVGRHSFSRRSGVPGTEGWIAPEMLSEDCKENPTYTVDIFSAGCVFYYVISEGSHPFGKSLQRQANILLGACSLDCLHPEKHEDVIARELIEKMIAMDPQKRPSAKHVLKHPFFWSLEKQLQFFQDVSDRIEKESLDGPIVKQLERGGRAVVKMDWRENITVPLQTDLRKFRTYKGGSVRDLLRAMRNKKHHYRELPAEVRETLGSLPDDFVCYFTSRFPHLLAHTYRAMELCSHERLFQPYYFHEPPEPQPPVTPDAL

**Q.** How did the “levels of RIDD targets SCARA3, Bloc1s1 and Col6A1” value [1] turn out when `C/C=C(/C)C(=O)O[C@H]1C(C)=C2[C@H]([C@@H]1OC(=O)CCCCCCC)[C@@](C)(OC(C)=O)C[C@H](OC(=O)CCC)[C@@]1(O)[C@H]2OC(=O)[C@@]1(C)O` [Tg, thapsigargin] was run?
**A.** reduced

**Q.** For `c1cc(Nc2cc(C3CC3)[nH]n2)nc(Nc2ccc3nc[nH]c3c2)n1` [APY29, reference compound], which IRE1 phosphorylation (IRE1) is on record?
**A.** significant reductions

**Q.** With `Cc1cc(=O)oc2c(C=O)c(O)ccc12` [4 μ8c, reference compound] as the compound, how does the “effect of 4 μ8c co-treatment on reduced APP levels” value (APP) read?
**A.** reversed

**Q.** What about the “effect of 4 μ8c co-administration on compound-dependent XBP1 splicing reporter activation” value [2] of the same compound?
**A.** blocked

**Q.** What about the “effect of 4 μ8c co-treatment on reduced extracellular Aβ” value (secreted Aβ) of the same compound?
**A.** blocked

**Q.** What about the “effect of 4 μ8c co-treatment on compound-increased DNAJB9 expression” value (DNAJB9) of the same compound?
**A.** inhibited

**Q.** What about the “effect of co-treatment on compound-dependent BiP increase” value (BiP) of the same compound?
**A.** blocked

**Q.** `CC(C)(C)c1nc(-c2ccc(NC(=O)Nc3cccc(C(F)(F)F)c3)c3ccccc23)c2c(N)nccn12` [KIRA6] was tested. Which “effect of KIRA6 co-treatment on compound-dependent XBP1 splicing” value (XBP1 splicing) did it give?
**A.** blocked
